The values below are quoted from earlier work in article PMC2946453 (Journal of pharmaceutical and biomedical analysis, 2010).

Where two headings read alike, the source gives them in different places.

The target of one data set is T1, ovine COX-1 (Ovis aries, UniProt P05979).
T1 sequence (P05979 25-600): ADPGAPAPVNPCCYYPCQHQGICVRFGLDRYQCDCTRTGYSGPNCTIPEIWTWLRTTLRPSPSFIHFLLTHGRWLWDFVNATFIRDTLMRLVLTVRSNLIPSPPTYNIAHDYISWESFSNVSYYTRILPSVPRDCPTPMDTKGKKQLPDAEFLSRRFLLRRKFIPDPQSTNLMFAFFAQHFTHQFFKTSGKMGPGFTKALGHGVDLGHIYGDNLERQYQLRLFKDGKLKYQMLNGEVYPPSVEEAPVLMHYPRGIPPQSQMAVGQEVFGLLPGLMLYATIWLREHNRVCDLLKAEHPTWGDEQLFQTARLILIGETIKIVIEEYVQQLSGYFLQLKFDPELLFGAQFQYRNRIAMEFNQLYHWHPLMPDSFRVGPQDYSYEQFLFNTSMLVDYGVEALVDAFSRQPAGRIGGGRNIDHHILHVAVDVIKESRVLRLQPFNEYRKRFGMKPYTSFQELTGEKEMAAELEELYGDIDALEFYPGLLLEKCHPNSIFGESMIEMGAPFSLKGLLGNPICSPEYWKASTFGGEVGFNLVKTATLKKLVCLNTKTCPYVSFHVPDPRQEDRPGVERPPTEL
Conditions: read-out: Km ovine COX-1; radiolabeled arachidonic acid.

Data set [1] has as its system COX-1. Conditions: read-out: IC50 COX-1; bovine aortic coronary endothelial cells.
The test system of data set [2] is COX-1. Conditions: read-out: IC50 COX-1; form of COX not mentioned.
A further data set deals with COX-2. Conditions: read-out: IC50 COX-2; form of COX not mentioned.
The next data set concerns human COX-2. Conditions: read-out: IC50 COX-2.

The term Km denotes the concentration of substrate that gives half-maximal velocity. As for `CCCCC/C=C\C/C=C\C/C=C\C/C=C\CCCC(=O)O` [arachidonic acid], the Km at ovine COX-1 is 3.7 ± 0.5 µM.
What is called IC50 is the concentration that gives 50% inhibition. As for `O=C(O)Cc1ccccc1Nc1c(Cl)cccc1Cl` [Diclofenac], the IC50 in the data set on COX-1 [1] was […].
Consider `Oc1ccc(/C=C/c2cc(O)cc(O)c2)cc1` [Resveratrol], for which the IC50 with COX-1 [2] was 0.83 ± 0.44 µM; in the data set on COX-2, 0.99 ± 0.4 µM.
Consider `COc1ccc2c(c1)c(CC(=O)O)c(C)n2C(=O)c1ccc(Cl)cc1` [Indomethacin], for which, in the data set on human COX-2, the IC50 was […].
